Consider three compounds from patent US20230181562A1, “USE OF A MULTIFUNCTIONAL LIGAND FOR TREATING DRY EYES, MEIBOMIAN GLAND DYSFUNCTIONS AND LACRIMAL GLAND DYSFUNCTIONS” (H4 ORPHAN PHARMA, priority 2020, published 2023).

Where two headings read alike, the source gives them in different places. Where no end group is shown, it is not given here.

Series [1] concerns the target T1, non-mutated CFTR (Homo sapiens, UniProt P13569).
T1 construct: host or cells: human epithelial cells (called glandular / lacrimal gland epithelial cells) grown on Snapwell filters
As to the kind of experiment: Ussing chamber short-circuit current (ion transport via CFTR). The following applies: for effect of Inh172 on cell potential: CFTR inh172 10 μM; for short circuit current differential after addition of tritoqualine: tritoqualine 10 μM. It counts as cell-based. The source says:
To investigate this action on CFTR modulation, the inventors used the Ussing chamber method, invented by the Dane Hans H. Ussing in the late 1950s. This technique makes it possible to study ionic exchanges across an epithelium, as it allows the tissue of interest to be kept alive for a few hours under controlled conditions of temperature and medium. The positioning of the tissue between two half-chambers makes it possible to define an apical compartment (corresponding to the lumen of the organ) and a basolateral compartment (corresponding to the blood compartment) and to investigate exchanges between these two compartments via the tissue.
This technique is used as a routine and is particularly well adapted for a pharmacological approach to ionic transport and to search for molecules of therapeutic interest in the context of ionic secretions of epithelial cells. It consists in measuring the transepithelial current (known as the short-circuit current and noted Ise). Ise is expressed in amperes to unit area of the epithelium (Ise in μA/cm^2). The cells are grown on a porous filter for 10 to 15 days at the liquid-liquid interface and then air-liquid interface in order to mimic conditions close to in vivo. The transepithelial resistance is measured regularly when culturing. The higher this resistance is (several hundred ohms), the more the epithelial tissue is junctive, polarised and therefore tight. At the air (apical side)-liquid (basolateral side) interface the epithelial cells polarise and form a tight mat which can be investigated with the Ussing chamber technique. A system with 6 Physiology Instrument® cuvettes allowing 6 experiments in parallel has been used.
The inventors have used USSING chambers to analyse the activity of tritoqualine on CFTR of glandular epithelial cells.
Typical protocols used for human epithelial cells expressing non-mutated CFTR:
Measurement of short circuit current in the presence of amiloride (ENaC channel inhibitor, 100 μM) followed by addition of 10 μM of the tritoqualine molecule and then addition of CFTR inh172 (10 μM, CFTR inhibitor) followed by addition of UTP (100 μM, validates the experiment by activating the calcium-sensitive Cl transport).
Measurement of short circuit current in the presence of amiloride (100 μM) and forskolin (0.05 μM activator of intracellular cAMP) then addition of 10 μM of the tritoqualine molecule then addition of CFTRinh172 (10 μM) then addition of UTP (100 μM).
Measurement of the short circuit current in the presence of CFTR Inh172 (10 μM) then addition of tritoqualine and forskolin (0.05 μM) then addition of UTP.
The inventors have prepared a 100 μM stock solution in DMSO. The compounds have been aliquoted per 100 μL and stored at −20° C.
Tritoqualine has been added to USSING cells at a dose of 10 μM in non-mutated cells FIG. 5.

The conditions of series [2]: cited from earlier work.
The test system of series [3] is basophils. Briefly: Flow CAST basophil degranulation (CD63+/CCR3+ flow cytometry). It counts as cell-based, human. The source says:
The inventors have used the Kit-Flow CAST (www.buhlmannlabs.ch/products-solutions/cellular-allergy/flow-cast/) to test the action of tritoqualine on the inhibition of basophil degranulation. The marker for degranulation is CD63. Upon basophil activation, CD63 markers bound to intracytoplasmic granules will fuse with the plasma membrane. They are then expressed on the cell surface: activated basophils thereby become CD63+. Further to CD63, another marker specific to basophils makes it possible to better target them, it is CCR3 (chemokine receptor 3). The latter is always expressed by this cell type. Thus, the degranulation of basophils is identified in the flow cytometry window as CD63+ and CCR3+.
In a first step 2 patients have been sampled. substance P has been tested at a dose of 10 μmoles.
After 30 minutes, degranulation in each of the tubes is around 7% as with the negative control.

For series [4], the target named is T2, NK 1 receptor (Homo sapiens, UniProt P25103).
T2 construct: human NK1 tachykinin receptor in the astrocytoma cell line U 373 MG; endogenous in cells; host or cells: U 373 MG human astrocytoma cells (per the cited method)
Briefly: NK 1 receptor binding (method of Heuillet et al.). As to conditions: FIG. 8. The protocol: Tritoqualine has been tested on the NK 1 receptor according to the method described by Heuillet et al., Characterization of a human NK1 tachykinin receptor in the astrocytoma cell line U 373 MG. Heuillet E et al. Neurochem. 1993 March.

Series [5] concerns the target T3, histidine decarboxylase (Homo sapiens, UniProt P19113).
T3 sequence (P19113 1-662): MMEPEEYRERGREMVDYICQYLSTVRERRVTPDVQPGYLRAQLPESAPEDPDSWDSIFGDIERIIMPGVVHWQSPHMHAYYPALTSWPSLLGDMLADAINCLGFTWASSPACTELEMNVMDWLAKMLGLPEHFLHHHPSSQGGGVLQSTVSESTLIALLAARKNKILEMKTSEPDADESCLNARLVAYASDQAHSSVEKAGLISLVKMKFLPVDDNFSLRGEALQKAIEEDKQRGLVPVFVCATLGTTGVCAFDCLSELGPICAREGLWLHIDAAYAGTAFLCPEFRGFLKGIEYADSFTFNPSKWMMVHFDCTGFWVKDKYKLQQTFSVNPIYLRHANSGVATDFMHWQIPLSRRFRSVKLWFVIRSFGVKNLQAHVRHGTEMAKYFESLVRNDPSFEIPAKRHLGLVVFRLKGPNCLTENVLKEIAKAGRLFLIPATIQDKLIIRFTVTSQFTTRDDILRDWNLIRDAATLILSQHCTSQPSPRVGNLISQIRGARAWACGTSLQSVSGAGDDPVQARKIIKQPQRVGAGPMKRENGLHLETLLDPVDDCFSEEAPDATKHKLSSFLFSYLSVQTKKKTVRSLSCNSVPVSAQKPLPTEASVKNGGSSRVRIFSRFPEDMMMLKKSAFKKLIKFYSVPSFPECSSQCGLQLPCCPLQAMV
The following applies: known anti-allergic activity; cited from earlier work.

T1 sequence (P13569 whole entry, change not shown): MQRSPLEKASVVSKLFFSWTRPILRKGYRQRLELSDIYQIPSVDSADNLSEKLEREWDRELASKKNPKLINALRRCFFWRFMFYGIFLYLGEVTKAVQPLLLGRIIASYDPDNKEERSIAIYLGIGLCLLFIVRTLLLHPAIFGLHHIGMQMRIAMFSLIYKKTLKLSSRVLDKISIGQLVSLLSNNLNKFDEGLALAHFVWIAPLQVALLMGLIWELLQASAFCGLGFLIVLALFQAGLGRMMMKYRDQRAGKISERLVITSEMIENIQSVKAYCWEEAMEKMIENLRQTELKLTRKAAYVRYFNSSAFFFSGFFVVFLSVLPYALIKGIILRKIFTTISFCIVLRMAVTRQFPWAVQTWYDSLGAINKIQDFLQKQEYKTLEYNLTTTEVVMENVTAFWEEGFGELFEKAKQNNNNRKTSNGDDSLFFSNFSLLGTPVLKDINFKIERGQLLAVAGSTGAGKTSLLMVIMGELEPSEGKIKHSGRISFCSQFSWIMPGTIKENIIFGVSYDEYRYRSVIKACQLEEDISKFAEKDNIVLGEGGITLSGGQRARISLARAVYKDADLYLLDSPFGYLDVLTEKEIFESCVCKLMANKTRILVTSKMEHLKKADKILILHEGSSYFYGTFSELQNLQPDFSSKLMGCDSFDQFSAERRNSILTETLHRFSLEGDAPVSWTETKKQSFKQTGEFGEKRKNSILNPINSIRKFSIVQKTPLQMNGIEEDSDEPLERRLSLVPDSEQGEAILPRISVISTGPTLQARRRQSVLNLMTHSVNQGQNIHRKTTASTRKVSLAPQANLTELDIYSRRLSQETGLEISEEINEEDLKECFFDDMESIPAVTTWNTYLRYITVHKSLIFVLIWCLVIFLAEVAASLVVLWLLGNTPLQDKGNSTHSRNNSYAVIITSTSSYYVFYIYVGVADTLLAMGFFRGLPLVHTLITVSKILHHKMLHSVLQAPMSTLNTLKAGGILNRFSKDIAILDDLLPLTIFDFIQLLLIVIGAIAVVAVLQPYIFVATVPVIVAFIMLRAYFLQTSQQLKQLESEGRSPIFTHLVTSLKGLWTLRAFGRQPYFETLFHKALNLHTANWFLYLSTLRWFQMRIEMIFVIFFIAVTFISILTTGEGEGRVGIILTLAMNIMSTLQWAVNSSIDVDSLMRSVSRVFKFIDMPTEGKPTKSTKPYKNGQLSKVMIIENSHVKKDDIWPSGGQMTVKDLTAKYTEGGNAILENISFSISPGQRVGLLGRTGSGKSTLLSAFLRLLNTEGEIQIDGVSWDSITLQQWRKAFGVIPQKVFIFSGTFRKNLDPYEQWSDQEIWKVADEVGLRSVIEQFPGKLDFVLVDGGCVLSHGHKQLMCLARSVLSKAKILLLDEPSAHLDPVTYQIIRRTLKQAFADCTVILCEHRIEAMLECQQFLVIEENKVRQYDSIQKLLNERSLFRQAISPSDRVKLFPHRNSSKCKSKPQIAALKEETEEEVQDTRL
T2 sequence (P25103 whole entry): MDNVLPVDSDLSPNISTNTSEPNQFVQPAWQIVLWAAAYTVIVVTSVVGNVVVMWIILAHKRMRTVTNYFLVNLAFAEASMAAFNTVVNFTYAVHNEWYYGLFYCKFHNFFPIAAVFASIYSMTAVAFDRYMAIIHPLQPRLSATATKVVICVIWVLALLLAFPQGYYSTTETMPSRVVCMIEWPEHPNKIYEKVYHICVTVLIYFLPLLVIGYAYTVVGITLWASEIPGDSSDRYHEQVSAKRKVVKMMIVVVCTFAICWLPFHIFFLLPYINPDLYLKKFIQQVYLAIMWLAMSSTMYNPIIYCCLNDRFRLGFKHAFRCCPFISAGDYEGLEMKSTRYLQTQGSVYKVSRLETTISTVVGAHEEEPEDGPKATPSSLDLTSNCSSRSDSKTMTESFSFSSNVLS

In the case of `O=C(O)c1ccc(C=C2SC(=S)N(c3cccc(C(F)(F)F)c3)C2=O)cc1` [Inh172], the “effect of Inh172 on cell potential” value in series [1] (non-mutated epithelial cells, apical side) is “completely blocks”; in series [1] (non-mutated lacrimal gland epithelial cells (second experiment)) it was “completely blocks”.

Regarding `CCOc1c(N)c2c(c(OCC)c1OCC)C(C1c3c(cc4c(c3OC)OCO4)CCN1C)OC2=O` (stereo not drawn) [tritoqualine, AMINO-7 TRIETHOXY-4,5,6 OXO-1 DIHYDRO-1,3 ISOBENZOFURANNYL-3)-1METHOXY-8METHYL-2METHYLENEDIOXY-6,7TETRAHYDRO-,2,3,4ISOQUINOLINE], the “solubility in benzene and acetone” value in series [2] (benzene and acetone) was “sparingly soluble”. In addition, the solubility in water entry in series [2] (water) was “Insoluble”. Further, the “degranulation after substance P in presence of tritoqualine” value in series [3] (tritoqualine 10 pmoles (FIG. 10: 10 μM), then substance P, after 30 minutes, as with the negative control) is “around 7%”. The concentration giving a half-maximal response (EC50) in series [1] (apical pole, FIG. 2, read-out: EC50 activity, apical pole) is 3.42 µM; in series [1] (basal pole, FIG. 3, read-out: EC50, basal pole), 4.87 µM. The “short circuit current differential after addition of tritoqualine” value in series [1] (non-mutated epithelial cells, apical side, increases from 16) is given as “more than 20 μA/cm^2”; in series [1] (non-mutated lacrimal gland epithelial cells, printed 'apical side' (second experiment), increases from 6.5) it was “more than 7.5 μA/cm^2”. Moreover, the “affinity (percent inhibition) on NK 1 receptor” value in series [4] amounted to 97%. Moreover, the “inhibitory action on histidine decarboxylase” value in series [5] is listed as “very weak”.

Regarding “substance P: NK 1 agonist (supplier Sigma-Aldrich) (RPKPQQFFGLM-NH2; UniProt P20366 58-68, looked up)”, the “CD63 present on the basophil (degranulation)” value in series [3] (substance P at 10 μmoles, basophils of 2 patients) was 70%.
